We go through 2 molecules from US20050198896A1, “Novel vegetal reinforcing agent based on phytohormones for use in the cultivation of plants or agriculture, preferably in the cultivation of fruit or in wine growing” (priority 2002, published 2005).

Assay [1] relates to cherry crops. The assay can be described thus: bursting of cherries after rainfall, exogenous application of ABA before rainfall. Type of assay: in vivo. To be noted: variety Hedelfinger. From the text: In cherry crops it is an important problem that if it rains shortly before the harvest the cherries are capable of absorbing large quantities of water in their interior. This frequently causes them to burst so that they can no longer be utilized. Exogenous application of ABA in cherry crops before rainfall reduces the bursting of the variety Hedelfinger, for example, by up to 30%.

Assay [2] relates to chrysanthemums. The assay can be described thus: frost resistance, damaged flowers after frost. To be noted: application about 24 hours prior to the frost. In kind it is in vivo. The method, then: Just as astonishing is the effect that exogenous application of ABA leads to frost resistance in crops, e.g. pears and apples, of adornment plants and fruit crops which has been observed. Application about 24 hours prior to the frost reduced the number of damaged flowers in chrysanthemums by 48%.

Assay [3] relates to vine. The assay can be described thus: quality enhancement in wine growing with ABA. In kind it is in vivo. To be noted: applied for several weeks prior to harvest. From the text:
ABA can also be used for quality enhancement in wine growing. […] This leads to a higher density of the wine and thereby to wines with improved storage stability. Analogous effects occur in pears and apples.

For assay [4], the system named is apples and pears. Nature of the assay: leaf abortion in apples and pears. Type of assay: in vivo. From the text:
This makes a further treatment with a fungicide unnecessary.

Assay [5] has as its system trees in fruit crops. Nature of the assay: renewed burgeoning following rain after a prolonged period of dryness. In kind it is in vivo, trees in fruit crops; potatoes. The following applies: also observed in potatoes. From the text:
It has furthermore been observed that trees in fruit crops following rain after a prolonged period of dryness burgeon again. This has a negative influence on the quality of the fruit. […] This effect has also been observed in potatoes.

For assay [6], the system named is sugar-beets. The assay can be described thus: sugar transport from the leaves into the beet body. In kind it is in vivo. The following applies: about 2 to 3 weeks before harvest; same effect in potatoes, red beet and carrots. From the text: A further surprising inventive feature of the phytohormonal properties of ABA is the effect of promoting the protein and sugar transport in the plants from the leaves into the root(s). […] The same effect is observed in potatoes, red beet and carrots. The increase in sugar content leads to a substantial quality improvement of the harvested produce.

Assay [7] relates to firs and spruces. The assay can be described thus: stress-susceptibility and needle retention of Christmas trees. Type of assay: in vivo.
For assay [8], the system named is grapes. Nature of the assay: GA3 in grapes compared to treatment with ethephon. Type of assay: in vivo. From the text: (§1) According to a further embodiment of the invention, GA3 and/or GA4/7 is/are used during the blooming period in the cultivation of […] grapes, table grapes or of grapes for special purposes, to enhance quality and as a protective measure against botrytis disease, in an application concentration of 5 to 100, preferably 5 to 50, especially 10 to 20 ppm, based on a quantity of water of 300 to 500, preferably 350 to 450 l/ha.

The subject of assay [9] is botrytis disease. Nature of the assay: infestation of grapes with botrytis disease. Type of assay: in vivo. The following applies: loosening-up of the grapes (lengthening of the stalks).
Source text: as §1, with “l/ha. […] By contrast to conventional treatment with fungicides this happens purely mechanically/morphologically since the greater length of the stalks prevents mutual pushing away of the grapes, and damage to the grapes is thereby avoided. Such damage results in the occurrence of nest-shaped focuses of rot.” for “l/ha.”

For `CC(C=C[C@@]1(O)C(C)=CC(=O)CC1(C)C)=CC(=O)O` (stereo in doubt) [ABA, (S)-5-(1-hydroxy-2,6,6-trimethyl-4-oxo-2-cyclohexenyl)-3-methyl-cis/trans-2,4-pentadienoic acid], the “reduction of the bursting of cherries” value in assay [1] was “up to 30%”. In addition, in assay [2], the “reduction of the number of damaged flowers” value is 48%. Further, in assay [3], the “increase in sugar content of the grapes” value is “comparable increase in sugar content” and the “reduction of the size of the grapes” value is recorded as “up to 10%”. Also, the leaf abortion result in assay [4] was “quick leaf abortion”. Further, the “renewed burgeoning of the plants” value in [5] is given as “prevents renewed burgeoning of the plants”. In addition, in [6], the “transport of leaf sugar into the body of the beet” value is “the sugar present in the leaves is additionally transported into the body of the beet”. Besides, in assay [7] (compared with untreated trees), the needle retention result is on record as “keep their needles for much longer than untreated trees”. Further, in assay [7] (firs and spruces harvested as Christmas trees), the stress-susceptibility result is recorded as “reduction of stress-susceptibility”.

As for `C=C1C[C@]23C[C@@]1(O)CC[C@H]2[C@@]12C=C[C@H](O)[C@@](C)(C(=O)O1)[C@H]2[C@@H]3C(=O)O` [GA3, gibberellin A3], in [8], the “density of the wine, colour and wine quality” value is given as “improved”; the grape weight entry is listed as “no reduction in grape weight is observed”; the mean grape diameter result is “larger”. The “infestation with botrytis disease” value in assay [9] is “reduction in infestation with botrytis disease”.
